Test systems include 786-0; BT-549; HT-29; KM12; LOX IMVI; MOLT-4; NCI-H460; NCI/ADR-RES; OVCAR-5; PC-3; RPMI-8226; SK-MEL-2; SK-MEL-5; SN12C; SNB-75; U-251; UACC-257; UACC-62; K562; SR.
What all share (assay): DTP human tumour cell line panel, 48 h

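Growth conditions: 96-well plates. Treatment: test compound, 48 hours, 5 concentrations. Analysis: linear interpolation between bracketing concentrations; unreached endpoints set to highest concentration. GI50 is the concentration that inhibits growth by half.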 Activity calls are given as the source filed them. No stated cut-off is given here; in the data, active = GI50 up to about 1.1 µM and inactive = higher. Bounds are passed on as bounds.

As for `Fc1ccc(C(OCCN2CCC3CCC(C2)N3C/C=C/c2cccnc2)c2ccc(F)cc2)cc1` (stereo unspecified), the GI50 with 786-0 is 5.27 µM (inactive); with BT-549, 13.6 µM (inactive); in the assay with HT-29 it was 3.44 µM (inactive); with KM12, 10.5 µM (inactive); in the assay on LOX IMVI, 13.1 µM (inactive); in the assay with MOLT-4, 2.48 µM (inactive). The GI50 in the assay on NCI-H460 was 12.7 µM (inactive); with NCI/ADR-RES, 11.3 µM (inactive); with OVCAR-5 it was 13.8 µM (inactive); in the assay on PC-3, 9.93 µM (inactive); in the assay with RPMI-8226 it was 3.43 µM (inactive); in the assay with SK-MEL-2, 13.3 µM (inactive). Moreover, the GI50 in the assay with SK-MEL-5 is 4.01 µM (inactive); in the assay with SN12C it was 13.1 µM (inactive); in the assay on SNB-75 it was 14.2 µM (inactive); with U-251, 11.9 µM (inactive); with UACC-257, 3.78 µM (inactive); with UACC-62, 12.3 µM (inactive).
Take `COc1ccc(/C=C2\N=C3N(Cc4ccccc4)C=C(N)N3C2=O)cc1`: the GI50 in the assay on 786-0 was 52.7 µM (inactive); in the assay on BT-549 it was 32.9 µM (inactive); in the assay with HT-29, > 100 µM (inactive); in the assay on K562, > 100 µM (inactive); in the assay with KM12, > 100 µM (inactive); with LOX IMVI, > 100 µM (inactive). The GI50 in the assay on MOLT-4 is > 100 µM (inactive); with NCI-H460, > 100 µM (inactive); in the assay on NCI/ADR-RES it was > 100 µM (inactive); with OVCAR-5 it was 82.8 µM (inactive); with PC-3, > 100 µM (inactive); in the assay on SK-MEL-2, > 100 µM (inactive). For the same compound, the GI50 was 46.7 µM (inactive) in the assay on SK-MEL-5; > 100 µM (inactive) in the assay with SN12C; 17.5 µM (inactive) in the assay on SNB-75; 30.3 µM (inactive) in the assay with U-251; 30.8 µM (inactive) with UACC-257; > 100 µM (inactive) with UACC-62.
As for `COc1ccc(/C=N/n2c(-c3ccccc3)n[nH]c2=O)cc1`, the GI50 in the assay with 786-0 was > 100 µM (inactive); in the assay with BT-549, > 100 µM (inactive); in the assay on HT-29, > 100 µM (inactive); with K562, > 100 µM (inactive); in the assay with KM12, 48.8 µM (inactive); in the assay with MOLT-4, 46.9 µM (inactive). Also, the GI50 in the assay with NCI-H460, in the assay on NCI/ADR-RES, in the assay on OVCAR-5, with PC-3, with RPMI-8226 and in the assay with SK-MEL-2 was > 100 µM (inactive) throughout. Also, the GI50 in the assay on SN12C, with SNB-75, with U-251, in the assay on UACC-257 and in the assay on UACC-62 was > 100 µM (inactive) each time.
As to `Cc1ccc(-c2c(C#N)c(-c3ccc(Cl)cc3)c(C#N)c(=O)n2NS(=O)(=O)c2ccc(C)cc2)cc1`, the GI50 is 42.4 µM (inactive) in the assay on 786-0; 23.5 µM (inactive) with BT-549; 37.2 µM (inactive) in the assay on HT-29; 33.9 µM (inactive) in the assay with K562; 22.5 µM (inactive) with KM12; 21.6 µM (inactive) with LOX IMVI. Further, the GI50 is 16.9 µM (inactive) with MOLT-4; 27.4 µM (inactive) in the assay on NCI-H460; 18.3 µM (inactive) with NCI/ADR-RES; 43.3 µM (inactive) in the assay on OVCAR-5; 17.4 µM (inactive) with PC-3; 14 µM (inactive) in the assay on SK-MEL-2. Also, the GI50 in the assay on SK-MEL-5 is 23.1 µM (inactive); in the assay with SN12C, 39.4 µM (inactive); with SNB-75 it was 30.1 µM (inactive); in the assay with U-251, 36.2 µM (inactive); with UACC-257, 74 µM (inactive); with UACC-62, 18 µM (inactive).
For the compound `CC[N+]1(C)CCC(O)(/C=C/c2ccc(OC)cc2)C(C(=O)/C=C/c2ccc(OC)cc2)C1` (stereo unspecified), the GI50 with 786-0 was 3.13 µM (inactive); in the assay with BT-549, 20.1 µM (inactive); in the assay on HT-29, 13.2 µM (inactive); in the assay with K562 it was 2.06 µM (inactive); in the assay with KM12, 4.13 µM (inactive); in the assay with LOX IMVI, 2.64 µM (inactive). Also, the GI50 in the assay on MOLT-4 was 1.94 µM (inactive); with NCI-H460, 9.53 µM (inactive); in the assay on NCI/ADR-RES, 27.1 µM (inactive); with OVCAR-5, 21.2 µM (inactive); in the assay with PC-3 it was 20.1 µM (inactive); in the assay with RPMI-8226, 0.252 µM (active). The GI50 with SK-MEL-2 is 19 µM (inactive); in the assay on SK-MEL-5, 14.7 µM (inactive); in the assay with SN12C, 21.3 µM (inactive); in the assay with SNB-75 it was 18.9 µM (inactive); with U-251 it was 15.6 µM (inactive); in the assay with UACC-257, 17.4 µM (inactive). Moreover, in the assay with UACC-62, the GI50 is 17.8 µM (inactive).
In the case of `CC(O)CNC(=O)Nc1c(C(F)(F)F)cc(-c2ccccc2)[nH]c1=O` (stereo unspecified), the GI50 in the assay on 786-0, in the assay on BT-549, in the assay on HT-29, in the assay on K562, in the assay on KM12 and with LOX IMVI was > 100 µM (inactive) each time. The GI50 in the assay with MOLT-4, with NCI-H460, in the assay with NCI/ADR-RES, in the assay with OVCAR-5, with PC-3 and with SK-MEL-2 was > 100 µM (inactive) in each case. Also, the GI50 in the assay on SK-MEL-5, in the assay on SN12C, in the assay with U-251, in the assay on UACC-257 and in the assay on UACC-62 was > 100 µM (inactive) each time.
`C[C@H]1S[C@H](c2c(F)cccc2F)n2c1nc1ccccc12`: the GI50 in the assay on 786-0 is 64.9 µM (inactive); in the assay with BT-549 it was 52.8 µM (inactive); with HT-29 it was 47.3 µM (inactive); with K562, 35.3 µM (inactive); in the assay with KM12, 86.5 µM (inactive); in the assay with MOLT-4, 40.6 µM (inactive). For the same compound, the GI50 with NCI-H460 was 25.4 µM (inactive); with NCI/ADR-RES, 44.2 µM (inactive); with OVCAR-5 it was 66.8 µM (inactive); in the assay with PC-3, 33.7 µM (inactive); in the assay with RPMI-8226, 37.5 µM (inactive); with SK-MEL-2, 15.1 µM (inactive). In addition, the GI50 in the assay on SK-MEL-5 was 20.2 µM (inactive); in the assay on SN12C, 74.1 µM (inactive); in the assay on SNB-75 it was > 100 µM (inactive); in the assay on U-251, 54.5 µM (inactive); in the assay on UACC-257, 50.2 µM (inactive); with UACC-62, 63.1 µM (inactive).
For the compound `NS(=O)(=O)c1ccc(NCc2nc3ccccc3[nH]2)cc1`, the GI50 with 786-0, in the assay on BT-549, in the assay with HT-29, in the assay with KM12, in the assay with LOX IMVI and in the assay with NCI-H460 was > 100 µM (inactive) in each case. In addition, the GI50 in the assay on NCI/ADR-RES, with OVCAR-5, with PC-3, with SK-MEL-2, in the assay with SK-MEL-5 and in the assay on SN12C was > 100 µM (inactive) throughout. The GI50 in the assay with SNB-75, with U-251, with UACC-257 and with UACC-62 was > 100 µM (inactive) in each case.
Consider `c1ccc([P+](c2ccccc2)(c2ccccc2)C2c3ccccc3-c3ccccc32)cc1`, for which the GI50 was 3.09 µM (inactive) with 786-0; 2.94 µM (inactive) in the assay with BT-549; 0.74 µM (active) in the assay on HT-29; 1.9 µM (inactive) with K562; 1.32 µM (inactive) in the assay on LOX IMVI; 1.67 µM (inactive) in the assay with MOLT-4. Also, the GI50 is 1.83 µM (inactive) in the assay with NCI-H460; 15.3 µM (inactive) in the assay on NCI/ADR-RES; 2.59 µM (inactive) in the assay on OVCAR-5; 1.47 µM (inactive) with PC-3; 1.35 µM (inactive) with RPMI-8226; 1.71 µM (inactive) in the assay on SK-MEL-2. In addition, the GI50 is 1.77 µM (inactive) in the assay with SK-MEL-5; 2.36 µM (inactive) in the assay with SN12C; 2.45 µM (inactive) with SNB-75; 1.57 µM (inactive) in the assay with U-251; 2.31 µM (inactive) with UACC-257; 1.26 µM (inactive) in the assay with UACC-62.
For `CC1(C)CCc2c(cc3c(c2O)CCC(C)(C)O3)O1`, the GI50 with 786-0 was > 10 µM (inactive); in the assay on BT-549 it was > 100 µM (inactive); with HT-29, 35.8 µM (inactive); with K562, 48.8 µM (inactive); with KM12, > 100 µM (inactive); in the assay with MOLT-4, 62.4 µM (inactive). Also, the GI50 in the assay with NCI-H460 was 57 µM (inactive); with NCI/ADR-RES, > 100 µM (inactive); in the assay with OVCAR-5, > 100 µM (inactive); in the assay on PC-3, 49.3 µM (inactive); with SK-MEL-2, 25.1 µM (inactive); in the assay with SK-MEL-5 it was 62.8 µM (inactive). For the same compound, the GI50 in the assay with SN12C is > 100 µM (inactive); in the assay on SNB-75, 80.5 µM (inactive); in the assay with SR, 76.6 µM (inactive); in the assay with U-251, > 100 µM (inactive); in the assay with UACC-257, > 100 µM (inactive); in the assay on UACC-62 it was > 100 µM (inactive).
Take `C[C@@H](CC(O)C(O)C(C)(C)O)C1CCC23CC12CCC1[C@@]2(C)CCC(O)C(C)(C)C2CC(OC2OC(CO)C(O)C(O)C2O)[C@]13C` (stereo partly specified): the GI50 with 786-0, with BT-549, in the assay on HT-29, with K562, in the assay on KM12 and in the assay on LOX IMVI was > 10 µM (inactive) throughout. The GI50 with MOLT-4, in the assay on NCI-H460, in the assay on NCI/ADR-RES, in the assay on OVCAR-5, with PC-3 and in the assay with RPMI-8226 was > 10 µM (inactive) throughout. In addition, the GI50 in the assay with SK-MEL-2, in the assay with SK-MEL-5, in the assay on SN12C, in the assay with SNB-75, in the assay on U-251 and in the assay on UACC-257 was > 10 µM (inactive) throughout. The GI50 in the assay on UACC-62 was > 10 µM (inactive).

Source of the values: ChEMBL document CHEMBL1201862, “PubChem BioAssay data set” (2004).
